Source: US20140148493A1, “Agricultural and Horticultural Insecticide Composition and Method for Using the Same” (NIHON NOHYAKU CO., LTD., priority 2011, published 2014)

How the values were obtained:
Assay type in all cases: in vivo
Plutella xylostella = test: Field test of insecticidal effect on Plutella xylostella (foliar application, Chinese kale); conditions: flubendiamide 11.3 and/or tolfenpyrad 60 g a.i./ha; for Control effect (%) 4DAT5 / Number of larvae per plant 4DAT5: 4 days after the 5th treatment; for Number of larvae per plant 4DAT5 / Number of larvae per plant 4DAT6: 4-day intervals, Chinese kale field; for Control effect (%) 4DAT6 / Number of larvae per plant 4DAT6: 4 days after the 6th treatment
Description: (§1) In an experimental Chinese kale (Brassica oleracea var. acephala) field (sized 4 m×5 m and planted with 800 plants per plot), foliar application was conducted with a water-diluted agrochemical solution (an amount equivalent to 750 L/ha) containing a predetermined dose of a flubendiamide 20% water-dispersible granule and/or a predetermined dose of a tolfenpyrad 15% emulsifiable concentrate at 4-day intervals, 8 times in total. In plots of Plutella xylostella or Spodoptera litura, 20 plants per plot were chosen at random, the number of surviving larvae was measured before the agrochemical treatment, at 4 days after the 5th agrochemical treatment and at 4 days after the 6th agrochemical treatment. With reference to the number of larvae before the agrochemical treatment, the control effect was calculated according to the formula shown below. In addition, the expected value for the control effect of the mixed use was calculated according to Colby's equation shown below. […] As for plots of Spodoptera exigua, the calculation was performed based on the measurements at 4 days after the 7th agrochemical treatment and at 4 days after the 8th agrochemical treatment.
(§2) Control effect=100−{(Ta×Cb)/(Tb×Ca)}×100
(§3) Ta=the number of larvae after the agrochemical treatment in a treatment plot
(§4) Tb=the number of larvae before the agrochemical treatment in a treatment plot
(§5) Ca=the number of larvae after the agrochemical treatment in a non-treatment plot
(§6) Cb=the number of larvae before the agrochemical treatment in a non-treatment plot
(§7) E(expected value)=(X+Y)−(X−Y/100)
(§8) X=the control effect of flubendiamide alone
(§9) Y=the control effect of tolfenpyrad alone
(§10) In each table, 4DAT5, 4DAT6, 4DAT7 and 4DAT8 are as defined below, and the a. i. stands for active ingredient.
(§11) 4DAT5: the measurement at 4 days after the 5th agrochemical treatment
(§12) 4DAT6 the measurement at 4 days after the 6th agrochemical treatment

Spodoptera litura = test: Field test of insecticidal effect on Spodoptera litura (foliar application, Chinese kale); conditions: flubendiamide 11.3 and/or tolfenpyrad 60 g a.i./ha; for Control effect (%) 4DAT5 / Number of larvae per plant 4DAT5: 4 days after the 5th treatment; for Number of larvae per plant 4DAT5 / Number of larvae per plant 4DAT6: 4-day intervals, Chinese kale field; for Control effect (%) 4DAT6 / Number of larvae per plant 4DAT6: 4 days after the 6th treatment
Description: as §1, §2, §3, §4, §5, §6, §7, §8, §9, §10, §11, §12

Spodoptera exigua = test: Field test of insecticidal effect on Spodoptera exigua (foliar application, Chinese kale); conditions: flubendiamide 11.3 and/or tolfenpyrad 60 g a.i./ha; for Control effect (%) 4DAT7 / Number of larvae per plant 4DAT7: 4 days after the 7th treatment; for Number of larvae per plant 4DAT7 / Number of larvae per plant 4DAT8: 4-day intervals, Chinese kale field; for Control effect (%) 4DAT8 / Number of larvae per plant 4DAT8: 4 days after the 8th treatment
Description: as §1, §2, §3, §4, §5, §6, §7, §8, §9, §10
4DAT7 the measurement at 4 days after the 7th agrochemical treatment
4DAT8 the measurement at 4 days after the 8th agrochemical treatment

Compound	Control effect (%) 4DAT5 (Plutella xylostella)	Number of larvae per plant 4DAT5 (Plutella xylostella)	Control effect (%) 4DAT6 (Plutella xylostella)	Number of larvae per plant 4DAT6 (Plutella xylostella)	Control effect (%) 4DAT5 (Spodoptera litura)	Number of larvae per plant 4DAT5 (Spodoptera litura)	Control effect (%) 4DAT6 (Spodoptera litura)	Number of larvae per plant 4DAT6 (Spodoptera litura)	Control effect (%) 4DAT7 (Spodoptera exigua)	Number of larvae per plant 4DAT7 (Spodoptera exigua)	Control effect (%) 4DAT8 (Spodoptera exigua)	Number of larvae per plant 4DAT8 (Spodoptera exigua)
Cc1cc(C(F)(C(F)(F)F)C(F)(F)F)ccc1NC(=O)c1cccc(I)c1C(=O)NC(C)(C)CS(C)(=O)=O [Flubendiamide, 3-iodo-N′-(2-mesyl-1,1-dimethylethyl)-N-{4-[1,2,2,2-tetrafluoro-1-(trifluoromethyl)ethyl]-o-tolyl}phthalamide]	53.5%	0.24	70.0%	0.13	3.9%	0.43	37.8%	0.31	37.6%	0.03	62.2%	0.04
CCc1nn(C)c(C(=O)NCc2ccc(Oc3ccc(C)cc3)cc2)c1Cl [Tolfenpyrad, 4-chloro-3-ethyl-1-methyl-N-[4-(p-tolyloxy)benzyl]pyrazole-5-carboxamide]	29.4%	0.38	58.0%	0.19	0%	0.25	0%	0.53	0%	0.06	0%	0.13
